Tests used:
PPARG = biological target: T1, PPARG (Homo sapiens, UniProt P37231); assay: RT112/84 FABP4-NLucP reporter gene assay, unstimulated; assay type: cell-based
T1 construct: endogenous in cells; host or cells: RT112/84 bladder cancer cells (FABP4-NLucP knock-in clone)
T1 sequence (P37231 1-477 isoform P37231-2): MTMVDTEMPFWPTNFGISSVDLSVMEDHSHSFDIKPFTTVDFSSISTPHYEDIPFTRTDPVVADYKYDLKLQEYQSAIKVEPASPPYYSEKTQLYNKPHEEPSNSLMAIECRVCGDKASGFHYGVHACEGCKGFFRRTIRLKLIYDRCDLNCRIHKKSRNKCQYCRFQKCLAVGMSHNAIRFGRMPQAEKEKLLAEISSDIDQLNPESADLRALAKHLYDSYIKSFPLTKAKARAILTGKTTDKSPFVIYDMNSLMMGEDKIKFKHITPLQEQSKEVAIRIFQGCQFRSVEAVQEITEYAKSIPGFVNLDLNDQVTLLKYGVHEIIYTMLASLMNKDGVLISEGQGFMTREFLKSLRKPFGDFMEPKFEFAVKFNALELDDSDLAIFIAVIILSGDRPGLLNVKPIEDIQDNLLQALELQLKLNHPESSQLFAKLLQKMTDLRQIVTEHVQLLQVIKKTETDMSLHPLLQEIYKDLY
From the text: Next, a PPARG reporter cell line was engineered to enable higher throughput assays to evaluate PPARG transactivation. Briefly, a destabilized NanoLuc luciferase reporter gene was inserted into the 3′-UTR of the FABP4 gene in the RT112/84 bladder cancer cell line using CRISPR/Cas9 mediated homology-directed repair (FIG. 4A).
RT112-FABP4-NLucP Reporter Gene Assay: Reporter cell line was generated by engineering NanoLuc gene into the 3′ UTR of FABP4 in RT112/84 cells using CRISPR/Cas9 guided genome engineering. Single cell clones were generated and the clone with the widest dynamic range selected for use. Assays were performed by seeding 384-well plates with ˜10,000 cells per well in MEMalpha containing 10% FBS and dosing compounds at indicated concentration using HP D300 digital dispenser (HP/Tecan). 18-24 hours after dosing with compound, cells were assayed using NanoGlo Luciferase Assay Reagent (Promega Madison, WI) and plates were read using EnVision Multilabel Reader (PerkinElmer Waltham, MA).

[1] = biological target: T2, PPARG ligand-binding domain - TRAP220/MED1 coactivator peptide (Homo sapiens, UniProt P37231); assay: TR-FRET coactivator assay, TRAP220/MED1 peptide; assay type: biochemical
T2 construct: purchased ThermoFisher Scientific
T2 sequence (P37231 238-503 limits assumed): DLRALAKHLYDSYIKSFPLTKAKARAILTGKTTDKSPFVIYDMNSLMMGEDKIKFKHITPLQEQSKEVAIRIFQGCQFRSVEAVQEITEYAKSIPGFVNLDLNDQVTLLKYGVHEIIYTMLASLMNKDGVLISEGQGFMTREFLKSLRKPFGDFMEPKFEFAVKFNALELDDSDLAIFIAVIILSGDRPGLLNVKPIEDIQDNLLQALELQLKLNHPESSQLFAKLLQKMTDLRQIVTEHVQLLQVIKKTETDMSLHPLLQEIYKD

[2] = biological target: T3, PPARG ligand-binding domain (Homo sapiens, UniProt P37231); assay: TR-FRET PPARG competition binding assay; conditions: maximal concentration tested 10 uM
T3 sequence (P37231 238-503 limits assumed): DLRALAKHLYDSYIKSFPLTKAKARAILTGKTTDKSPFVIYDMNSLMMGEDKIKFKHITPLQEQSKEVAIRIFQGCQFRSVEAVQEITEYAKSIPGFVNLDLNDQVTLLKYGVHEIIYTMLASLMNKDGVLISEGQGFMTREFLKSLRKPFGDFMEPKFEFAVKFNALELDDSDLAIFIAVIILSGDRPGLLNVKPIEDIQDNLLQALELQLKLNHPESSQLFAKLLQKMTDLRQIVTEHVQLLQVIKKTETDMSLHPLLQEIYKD
Experimental: To evaluate binding affinity, a PPARG competition binding assay that measures displacement of a fluorescent PPARG ligand from the PPARG ligand-binding domain was used.
Biochemical Assays: The LanthaScreen TR-FRET PPAR gamma Competitive Binding Assay and LanthaScreen TR-FRET PPAR gamma Coactivator Assay were obtained from ThermoFisher Scientific. Assays were performed according to the manufacturer's protocol. In order to assay inverse-agonism, the Coactivator assay was modified by the use of fluorescently labeled co-repressor peptides (NCoR1 ID2 peptide, SMRT ID2 peptide) to convert from agonist mode (coactivator recruitment) into inverse-agonist mode (corepressor recruitment).

[3] = system: PPARG target gene expression in UM-UC-9 cells; assay: RNA sequencing of UM-UC-9 cells after 7 days dosing; assay type: cell-based, human; conditions: 500 nmol/L
Experimental: Next, the effects of long-term dosing on the transcriptional profile of the PPARG-amplified cell line, UMUC-9, were evaluated. Briefly, UM-UC-9 cells were treated for 7 days with various PPARG modulators dosed at 500 nmol/L and gene expression was analyzed using RNA sequencing. […] Genes that were more abundantly expressed upon treatment with inverse-agonists included ALPP, SPINK4, and ALDH1A3 (FIG. 5). […] In summary, the in vitro pharmacological properties of known PPARG modulators have been characterized and two distinct chemotypes with bona-fide inverse-agonist activity in PPARG-activated bladder cancer cells were identified.
RNAseq analysis: RNA was isolated using RNEasy (Qiagen) and an RNAseq library was prepared using NEBNext Ultra Directional RNA Library Prep Kit for Illumina and NEBNext Multiplex Oligos for Illumina (New England BioLabs). RNAseq sequencing was performed using an Illumina MiSeq instrument according to the manufacturers protocol. Sequence data was analyzed using Firehose (Broad Institute, Cambridge MA) to map transcripts and calculate RPKM (SW780 cDNA expression) or TPM (UM-UC-9).
For UM-UC-9 RNAseq experiment, the resulting reads were used to calculate transcript abundance in units of TPM (transcripts per million) (18), which were then adjusted using TMM normalization (19) for comparison. […]

UM-UC-9 cells = assay: Direct cell counting dose-response proliferation assay; assay type: cell-based, human
Experimental: To determine whether PPARG modulators affect the proliferation and/or viability of PPARG-activated bladder cancer cell lines, a direct cell counting-based assay was performed. This assay likely avoids potential artifacts associated with the use of an ATP content-based assay, given that PPAR modulators are known to regulate cellular metabolic activity. […] These IC50 values align well with the calculated IC50s from both the cell-based reporter gene assay (FIG. 8A) and the biochemical corepressor assay (FIG. 8D).
(§1) Proliferation Assays: To enable cell-counting experiments, cell lines were transduced with a lentiviral vector encoding nuclear-targeted GFP, TagGFP2-H2B (Evrogen), and stable pools generated following selection for puromycin resistance. Cell lines were maintained for at least 7 days following selection prior to expansion and seeding into 96- or 384-well plates for further analysis. For kinetic proliferation assays, 96-well plates (n 1% 4 per condition) were imaged and counted every two hours using IncuCyte Zoom (Essen BioScience). Media and compounds were replaced approximately every 3-4 days. For endpoint assays to measure dose-response, cells were plated in 384-well plates, dosed with compound, and upon reaching approximately 70% to 90% confluence in control wells, cells were either counted using fluorescence imaging (Incu-Cyte Zoom) or incubated with CyQuant (Thermo Fisher) at the indicated time and plates were read with a fluorescent plate reader.

[4] = system: PPARG-activated bladder cancer cell lines; assay: Proliferation assays in PPARG-activated bladder cancer cell lines; assay type: cell-based, human; conditions: 100 nM-500 nM
Experimental: A panel of bladder cancer cell lines with PPARG modulators in colony formation assays was then tested (FIG. 10), kinetic proliferation assays (IncuCyte Zoom; Essen Bioscience) using cell lines treated with a single concentration of compound (100 nM-500 nM), and end-point dose-response assays (CellTiter Glo or CyQuant).
This assay was expanded to include an additional 8 representative bladder cancer cell lines, including cell lines with PPARG amplification, RXRA p.S427F mutation, activated gene signature, and control cell lines with low level expression of PPARG and target genes. […] Representative data for the UM-UC-9 cell line are shown in FIG. 6B, and is tabulated for the tested bladder cancer cell lines in Table 1. […] This significant (P<0.01) preferential sensitivity to PPARG inverse-agonists, but not antagonists, is maintained across all of the PPARG-activated cell lines in the panel, including the RXRA p.S427F cell line, HT-1197 (41), the PPARG-amplified cell lines, 5637 and UM-UC-9, and the PPARG activation gene signature cell lines Cal29, UM-UC-1, and RT112/84 (FIG. 12). […] Similar results were obtained with these cell lines in parallel studies using clonogenic assays to quantify colony-forming ability (FIG. 10).
as §1

[5] = system: PPARG-activated pancreatic and colorectal cancer cell lines; assay: Kinetic proliferation assay in pancreatic and colorectal cancer cell lines; assay type: cell-based; conditions: 500 nM
From the text: To enable cell-counting, cell lines were transduced with a lentiviral vector encoding nuclear-targeted GFP (TagGFP2-H2B), and stable pools generated following selection for puromycin-resistance. Cell lines were maintained for at least 7 days following selection prior to expansion and seeding into 96-well plates for further analysis. For kinetic proliferation assays, 96-well plates were imaged in phase-contrast and green fluorescence mode every two hours using IncuCyte Zoom (Essen BioScience, Ann Arbor MI). Using IncuCyte software, the number of fluorescent nuclei were counted to monitor quantitative changes in cell number over time. Media and compounds were replaced approximately every 3-4 days.
DMSO treatment was also included as a vehicle control.

SMILES	effect on unstimulated reporter (PPARG)	effect in coactivator assay [1]	binding to PPARG LBD, competition with fluorescent ligand [2]	hierarchical clustering of gene expression signatures [3]	effect on cell proliferation compared with DMSO control (UM-UC-9 cells)	sensitivity of cell lines [4]	sensitivity of cell lines [5]
CC(C)(c1ccc(OCC2CO2)cc1)c1ccc(OCC2CO2)cc1 (centres unmarked) [BADGE, Bisphenol A diglycidyl ether]	minimal detectable effect	minimal effect	weak activity	–	–	–	–
CCC(=O)NC[C@H](Cc1ccc(OCCc2nc(-c3ccccc3)oc2C)cc1)N/C(C)=C\C(=O)c1ccc(C(F)(F)F)cc1 [GW6471]	modest inhibitory effect	–	–	–	–	–	–
COP(=O)(OC)OC(c1ccc(Cl)cc1)P(=O)(OC)OC (centres unmarked) [SR202, Mifobate]	minimal detectable effect	minimal effect	weak activity	–	–	–	–
Cc1c(C)n(Cc2ccc(-c3ccccc3C(=O)O)cc2)c2ccc(C(=O)N[C@@H](C)c3ccc(C(C)(C)C)cc3)cc12 [SR2595]	–	–	–	cluster with vehicle-treated controls	no significant effects	not sensitive	not sensitive

— US11896678B2, “Compositions and methods for treatment of peroxisome proliferator-activated receptor gamma (PPARG) activated cancer” (THE BROAD INSTITUTE, INC., priority 2017, dated 2024)
